Measurements from patent US20250304596A1, “PYRAZINE DERIVATIVES AND USES THEREOF” (FOGHORN THERAPEUTICS INC., priority 2022, published 2025).

What was measured:
HiBit-BRM fusion protein = target: T1, HiBit-BRM fusion protein (Homo sapiens, UniProt P51531); test: HiBiT-BRM cell-based degradation assay (Nano-Glo HiBiT Lytic Detection, 24 h); conditions: stable HeLa cell line expressing HiBiT-BRM; for DC50: read-out: BRM HiBit Degradation IC50
T1 construct: expressed in transfected cells
How it was run: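 A stable HeLa line expressing HiBiT-BRM was treated for 24 h with compound in a 10-point, 3-fold series (30 μM final top dose). Remaining HiBiT-BRM was read by lytic LgBiT complementation luminescence. % degradation was normalised to DMSO (high control) and 2 μM reference BRM/BRG1 degrader (low control).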

[1] = target: T2, HiBit-BRG1 fusion protein (Homo sapiens, UniProt P51532); test: HiBiT-BRG1 cell-based degradation assay (Nano-Glo HiBiT Lytic Detection, 24 h); conditions: stable HeLa cell line expressing HiBit-BRG1 and LgBit; for Dmax: read-out: BRG1 HiBit Degradation Maximum (%); for DC50: read-out: BRMG1 HiBit Degradation IC50
T2 construct: expressed in transfected cells
How it was run: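 HeLa cells stably expressing HiBit-BRG1 and LgBit, treated 24 h with 3-fold dilutions (10 points, duplicate, 30 μM final top dose). Luminescence read after Nano-Glo HiBiT lytic reagent; % degradation scaled between DMSO (high) and 2 μM reference BRM/BRG1 degrader (low control).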

T2 sequence (P51532 whole entry, the tested form may be a part): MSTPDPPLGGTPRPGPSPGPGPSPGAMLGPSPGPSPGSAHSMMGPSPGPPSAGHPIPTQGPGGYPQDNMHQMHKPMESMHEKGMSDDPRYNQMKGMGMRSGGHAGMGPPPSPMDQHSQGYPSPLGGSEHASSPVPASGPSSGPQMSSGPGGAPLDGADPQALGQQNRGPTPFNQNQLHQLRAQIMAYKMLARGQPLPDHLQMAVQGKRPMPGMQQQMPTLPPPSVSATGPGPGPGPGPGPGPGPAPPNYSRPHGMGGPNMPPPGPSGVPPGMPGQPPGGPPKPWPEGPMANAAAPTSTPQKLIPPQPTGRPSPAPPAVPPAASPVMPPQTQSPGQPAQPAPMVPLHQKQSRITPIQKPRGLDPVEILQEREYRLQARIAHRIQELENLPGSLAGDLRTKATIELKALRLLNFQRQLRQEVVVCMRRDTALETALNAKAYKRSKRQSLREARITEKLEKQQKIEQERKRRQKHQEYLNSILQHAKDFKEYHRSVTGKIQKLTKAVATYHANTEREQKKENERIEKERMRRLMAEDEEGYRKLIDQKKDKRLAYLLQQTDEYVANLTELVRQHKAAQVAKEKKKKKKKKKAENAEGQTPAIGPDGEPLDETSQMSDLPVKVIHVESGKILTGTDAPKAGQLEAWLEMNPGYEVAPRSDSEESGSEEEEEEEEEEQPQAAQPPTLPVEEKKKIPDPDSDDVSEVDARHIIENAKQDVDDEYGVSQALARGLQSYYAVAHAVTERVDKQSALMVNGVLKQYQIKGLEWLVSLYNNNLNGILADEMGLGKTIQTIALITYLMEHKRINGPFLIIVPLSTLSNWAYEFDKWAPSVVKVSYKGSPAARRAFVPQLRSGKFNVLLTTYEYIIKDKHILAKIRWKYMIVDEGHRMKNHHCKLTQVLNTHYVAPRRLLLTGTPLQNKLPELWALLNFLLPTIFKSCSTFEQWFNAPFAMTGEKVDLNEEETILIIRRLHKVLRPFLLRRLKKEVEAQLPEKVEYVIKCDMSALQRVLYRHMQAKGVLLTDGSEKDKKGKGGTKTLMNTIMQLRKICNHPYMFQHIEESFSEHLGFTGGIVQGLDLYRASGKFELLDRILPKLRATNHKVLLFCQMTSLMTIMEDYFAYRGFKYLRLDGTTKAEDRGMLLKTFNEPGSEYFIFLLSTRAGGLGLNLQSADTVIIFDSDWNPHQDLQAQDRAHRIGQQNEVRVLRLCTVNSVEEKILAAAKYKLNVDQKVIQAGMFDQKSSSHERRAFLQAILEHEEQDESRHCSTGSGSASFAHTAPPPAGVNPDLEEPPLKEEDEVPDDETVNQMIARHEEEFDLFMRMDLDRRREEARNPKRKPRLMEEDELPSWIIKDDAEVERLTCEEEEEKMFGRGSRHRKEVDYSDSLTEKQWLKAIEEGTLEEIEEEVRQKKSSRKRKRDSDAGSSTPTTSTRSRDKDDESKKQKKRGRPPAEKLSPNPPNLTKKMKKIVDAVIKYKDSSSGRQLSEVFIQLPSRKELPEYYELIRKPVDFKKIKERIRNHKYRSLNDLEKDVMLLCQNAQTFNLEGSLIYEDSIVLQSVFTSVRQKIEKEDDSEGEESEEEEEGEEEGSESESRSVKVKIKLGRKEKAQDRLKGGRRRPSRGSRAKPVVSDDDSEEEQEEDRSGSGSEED
T1 sequence (P51531 whole entry, the tested form may be a part): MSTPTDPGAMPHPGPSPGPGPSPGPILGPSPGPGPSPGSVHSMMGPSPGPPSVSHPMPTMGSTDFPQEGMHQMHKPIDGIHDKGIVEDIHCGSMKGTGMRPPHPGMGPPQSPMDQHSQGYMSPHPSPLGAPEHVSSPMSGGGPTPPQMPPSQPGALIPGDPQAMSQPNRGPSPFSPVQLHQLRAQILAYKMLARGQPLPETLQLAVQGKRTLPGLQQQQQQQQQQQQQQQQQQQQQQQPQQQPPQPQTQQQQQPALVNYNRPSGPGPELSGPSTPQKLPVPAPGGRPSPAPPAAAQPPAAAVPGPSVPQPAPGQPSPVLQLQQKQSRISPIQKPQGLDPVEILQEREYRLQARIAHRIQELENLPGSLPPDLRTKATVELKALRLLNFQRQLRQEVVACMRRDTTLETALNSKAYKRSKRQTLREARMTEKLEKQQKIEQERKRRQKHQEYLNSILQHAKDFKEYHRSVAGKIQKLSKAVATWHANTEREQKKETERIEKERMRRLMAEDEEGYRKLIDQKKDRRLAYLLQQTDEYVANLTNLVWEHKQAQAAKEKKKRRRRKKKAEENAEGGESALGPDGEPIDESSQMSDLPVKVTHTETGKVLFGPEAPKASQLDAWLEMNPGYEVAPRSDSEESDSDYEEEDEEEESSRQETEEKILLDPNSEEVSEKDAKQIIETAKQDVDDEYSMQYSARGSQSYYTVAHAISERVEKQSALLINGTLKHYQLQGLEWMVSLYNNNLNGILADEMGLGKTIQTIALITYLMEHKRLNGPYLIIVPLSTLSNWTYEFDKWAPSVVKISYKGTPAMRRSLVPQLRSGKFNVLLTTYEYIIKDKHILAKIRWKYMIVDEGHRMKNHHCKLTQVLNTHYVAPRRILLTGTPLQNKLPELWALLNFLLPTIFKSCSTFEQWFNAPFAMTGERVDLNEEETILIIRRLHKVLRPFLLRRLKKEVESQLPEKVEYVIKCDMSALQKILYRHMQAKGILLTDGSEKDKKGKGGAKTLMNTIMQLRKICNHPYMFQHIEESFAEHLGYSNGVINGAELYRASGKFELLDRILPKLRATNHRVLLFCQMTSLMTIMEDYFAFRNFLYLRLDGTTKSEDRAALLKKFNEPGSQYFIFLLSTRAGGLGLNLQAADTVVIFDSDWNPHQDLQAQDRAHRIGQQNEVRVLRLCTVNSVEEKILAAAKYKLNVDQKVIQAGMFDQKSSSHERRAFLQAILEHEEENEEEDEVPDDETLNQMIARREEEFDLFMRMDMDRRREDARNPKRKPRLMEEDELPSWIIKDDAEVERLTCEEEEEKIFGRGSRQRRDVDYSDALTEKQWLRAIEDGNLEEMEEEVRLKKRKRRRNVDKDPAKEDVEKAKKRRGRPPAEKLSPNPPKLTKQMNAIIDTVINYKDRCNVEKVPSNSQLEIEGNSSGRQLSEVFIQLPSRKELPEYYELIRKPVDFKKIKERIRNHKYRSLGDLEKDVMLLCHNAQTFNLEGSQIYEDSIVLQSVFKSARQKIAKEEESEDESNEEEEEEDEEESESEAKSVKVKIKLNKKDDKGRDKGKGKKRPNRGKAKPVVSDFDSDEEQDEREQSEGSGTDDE

Structure (SMILES) | BRM HiBit Degradation Maximum (%) (HiBit-BRM fusion protein) | DC50 (HiBit-BRM fusion protein) [nM] | Dmax [1] [%] | DC50 [1] [nM]
Cc1ncsc1-c1ccc([C@H](C)NC(=O)[C@@H]2C[C@@H](O)CN2C(=O)[C@@H](c2cc(-c3cnc(N4CCC(c5cc6cc(-c7ccccc7O)nnc6s5)CC4)nc3)no2)C(C)C)cc1 [Compound 54, (2S,4R)-4-hydroxy-1-((R)-2-(3-(2-(4-(3-(2-hydroxyphenyl)thieno[2,3-c]pyridazin-6-yl)piperidin-1-yl)pyrimidin-5-yl)isoxazol-5-yl)-3-methylbutanoyl)-N-((S)-1-(4-(4-methylthiazol-5-yl)phenyl)ethyl)pyrrolidine-2-carboxamide] | A (“A” indicates maximum degradation ≥75%) | < 10 | < 50 | > 1000
Cc1nc(N2CCC(c3sc4nnc(-c5ccccc5O)cc4c3C)CC2)ccc1-c1noc(C(C(=O)N2C[C@H](O)C[C@H]2C(=O)N[C@@H](C)c2ccc(-c3scnc3C)cc2)C(C)C)c1Cl (stereo in doubt) [Compound 21, (2S,4R)-1-((S)-2-(4-chloro-3-(6-(4-(3-(2-hydroxyphenyl)-5-methylthieno[2,3-c]pyridazin-6-yl)piperidin-1-yl)-2-methylpyridin-3-yl)isoxazol-5-yl)-3-methylbutanoyl)-4-hydroxy-N-((S)-1-(4-(4-methylthiazol-5-yl)phenyl)ethyl)pyrrolidine-2-carboxamide] | A (“A” indicates maximum degradation ≥75%) | > 10 | > 50 | > 100
Cc1ncsc1-c1ccc([C@H](C)NC(=O)[C@@H]2C[C@@H](O)CN2C(=O)[C@@H](c2cc(N3CC[C@@H](c4sc5nnc(-c6ccccc6O)cc5c4C)C3)no2)C(C)C)cc1 [Compound 74, (2S,4R)-4-hydroxy-1-((R)-2-(3-((R)-3-(3-(2-hydroxyphenyl)-5-methylthieno[2,3-c]pyridazin-6-yl)pyrrolidin-1-yl)isoxazol-5-yl)-3-methylbutanoyl)-N-((S)-1-(4-(4-methylthiazol-5-yl)phenyl)ethyl)pyrrolidine-2-carboxamide] | A (“A” indicates maximum degradation ≥75%) | < 10 | > 50 | > 10
Cc1ncsc1-c1ccc([C@H](C)NC(=O)[C@@H]2C[C@@H](O)CN2C(=O)[C@@H](c2cc(-c3cnc(N4CCC(c5sc6nnc(-c7ccccc7O)cc6c5C)[C@@H](C)C4)nc3)no2)C(C)C)cc1 (stereo in doubt) [Compound 35, (2S,4R)-4-hydroxy-1-((R)-2-(3-(2-((3R,4R)-4-(3-(2-hydroxyphenyl)-5-methylthieno[2,3-c]pyridazin-6-yl)-3-methylpiperidin-1-yl)pyrimidin-5-yl)isoxazol-5-yl)-3-methylbutanoyl)-N-((S)-1-(4-(4-methylthiazol-5-yl)phenyl)ethyl)pyrrolidine-2-carboxamide] | A (“A” indicates maximum degradation ≥75%) | < 10 | < 50 | > 1000
Cc1ncsc1-c1ccc([C@H](C)NC(=O)[C@@H]2C[C@@H](O)CN2C(=O)[C@@H](c2cc(-c3cnc(N4CCC(c5cc6nnc(-c7ccccc7O)cc6s5)CC4)nc3)no2)C(C)C)cc1 [Compound 55, (2S,4R)-4-hydroxy-1-((R)-2-(3-(2-(4-(3-(2-hydroxyphenyl)thieno[3,2-c]pyridazin-6-yl)piperidin-1-yl)pyrimidin-5-yl)isoxazol-5-yl)-3-methylbutanoyl)-N-((S)-1-(4-(4-methylthiazol-5-yl)phenyl)ethyl)pyrrolidine-2-carboxamide] | A (“A” indicates maximum degradation ≥75%) | < 10 | < 50 | > 1000
Cc1ncsc1-c1ccc([C@H](C)NC(=O)[C@@H]2C[C@@H](O)CN2C(=O)[C@@H](c2cc(-c3ccc(N4CCC(c5sc6nnc(-c7ccccc7O)cc6c5C)CC4)cn3)no2)C(C)C)cc1 [Compound 34, (2S,4R)-4-hydroxy-1-((R)-2-(3-(5-(4-(3-(2-hydroxyphenyl)-5-methylthieno[2,3-c]pyridazin-6-yl)piperidin-1-yl)pyridin-2-yl)isoxazol-5-yl)-3-methylbutanoyl)-N-((S)-1-(4-(4-methylthiazol-5-yl)phenyl)ethyl)pyrrolidine-2-carboxamide] | A (“A” indicates maximum degradation ≥75%) | < 10 | < 50 | > 1000
Cc1ncsc1-c1ccc([C@H](C)NC(=O)[C@@H]2C[C@@H](O)CN2C(=O)[C@@H](c2cc([C@H]3CC[C@@H](c4cnc(N5CCC(c6sc7nnc(-c8ccccc8O)cc7c6C)CC5)nc4)CC3)no2)C(C)C)cc1 (single isomer, unassigned) [Compound 65] | A (“A” indicates maximum degradation ≥75%) | > 10 | < 50 | > 1000
Cc1ncsc1-c1ccc([C@H](C)NC(=O)[C@@H]2C[C@@H](O)CN2C(=O)[C@@H](c2cc(-c3ccnc(N4CC[C@H](c5sc6nnc(-c7ccccc7O)cc6c5C)C4)n3)no2)C(C)C)cc1 [Compound 8, (2S,4R)-4-hydroxy-1-((R)-2-(3-(2-((S)-3-(3-(2-hydroxyphenyl)-5-methylthieno[2,3-c]pyridazin-6-yl)pyrrolidin-1-yl)pyrimidin-4-yl)isoxazol-5-yl)-3-methylbutanoyl)-N-((S)-1-(4-(4-methylthiazol-5-yl)phenyl)ethyl)pyrrolidine-2-carboxamide] | A (“A” indicates maximum degradation ≥75%) | > 10 | < 50 | > 1000
Cc1ncsc1-c1ccc([C@H](C)NC(=O)[C@@H]2C[C@@H](O)CN2C(=O)C(c2cc(Oc3nccc(N4CCC(c5sc6nnc(-c7ccccc7O)cc6c5C)CC4)n3)no2)C(C)C)cc1 (single isomer, unassigned) [Compound 61, (2S,4R)-4-hydroxy-1-[(2R*)-2-{3-[(4-{4-[3-(2-hydroxyphenyl)-5-methylthieno[2,3-c]pyridazin-6-yl]piperidin-1-yl}pyrimidin-2-yl)oxy]-1,2-oxazol-5-yl}-3-methylbutanoyl]-N-[(1S)-1-[4-(4-methyl-1,3-thiazol-5-yl)phenyl]ethyl]pyrrolidine-2-carboxamide] | C (“C” indicates maximum degradation <50%) | > 1000 | < 50 | > 1000
Cc1ncsc1-c1ccc([C@H](C)NC(=O)[C@@H]2C[C@@H](O)CN2C(=O)[C@@H](c2cc(N3CC4(C3)CN(c3sc5nnc(-c6ccccc6O)cc5c3C)C4)no2)C(C)C)cc1 [Compound 79, (2S,4R)-4-hydroxy-1-((R)-2-(3-(6-(3-(2-hydroxyphenyl)-5-methylthieno[2,3-c]pyridazin-6-yl)-2,6-diazaspiro[3.3]heptan-2-yl)isoxazol-5-yl)-3-methylbutanoyl)-N-((S)-1-(4-(4-methylthiazol-5-yl)phenyl)ethyl)pyrrolidine-2-carboxamide] | A (“A” indicates maximum degradation ≥75%) | < 10 | > 50 | –
Cc1ncsc1-c1ccc([C@H](C)NC(=O)[C@@H]2C[C@@H](O)CN2C(=O)[C@@H](c2cc(-c3cnc(N4CCN(c5cc6nnc(-c7ccccc7O)cc6s5)CC4)nc3)no2)C(C)C)cc1 [Compound 9, (2S,4R)-4-hydroxy-1-{2-[3-(2-{4-[3-(2-hydroxyphenyl)thieno[3,2-c]pyridazin-6-yl]piperazin-1-yl}pyrimidin-5-yl)-1,2-oxazol-5-yl]-3-methylbutanoyl}-N-[(1S)-1-[4-(4-methyl-1,3-thiazol-5-yl)phenyl]ethyl]pyrrolidine-2-carboxamide] | A (“A” indicates maximum degradation ≥75%) | < 10 | > 75 | > 10
Cc1cc(-c2cc([C@H](C(=O)N3C[C@H](O)C[C@H]3C(=O)N[C@@H](C)c3ccc(-c4scnc4C)cc3)C(C)C)on2)cnc1N1CCC(c2sc3nnc(-c4ccccc4O)cc3c2C)CC1 [Compound 43, (2S,4R)-4-hydroxy-1-((R)-2-(3-(6-(4-(3-(2-hydroxyphenyl)-5-methylthieno[2,3-c]pyridazin-6-yl)piperidin-1-yl)-5-methylpyridin-3-yl)isoxazol-5-yl)-3-methylbutanoyl)-N-((S)-1-(4-(4-methylthiazol-5-yl)phenyl)ethyl)pyrrolidine-2-carboxamide] | A (“A” indicates maximum degradation ≥75%) | < 10 | < 50 | > 1000
Cc1ncsc1-c1ccc([C@H](C)NC(=O)[C@@H]2C[C@@H](O)CN2C(=O)[C@@H](c2cc(-c3cnc(N4CCC5(CC4)CC(c4sc6nnc(-c7ccccc7O)cc6c4C)C5)nc3)no2)C(C)C)cc1 [Compound 48, (2S,4R)-4-hydroxy-1-((R)-2-(3-(2-(2-(3-(2-hydroxyphenyl)-5-methylthieno[2,3-c]pyridazin-6-yl)-7-azaspiro[3.5]nonan-7-yl)pyrimidin-5-yl)isoxazol-5-yl)-3-methylbutanoyl)-N-((S)-1-(4-(4-methylthiazol-5-yl)phenyl)ethyl)pyrrolidine-2-carboxamide] | A (“A” indicates maximum degradation ≥75%) | > 10 | < 50 | > 1000
Cc1ncsc1-c1ccc([C@H](C)NC(=O)[C@@H]2C[C@@H](O)CN2C(=O)[C@@H](c2cc(-c3cnc(N4CCC(c5sc6nnc(-c7ccccc7O)cc6c5C)CC4)nc3)no2)C(C)C)cc1 (single isomer, unassigned) [Compound 66] | A (“A” indicates maximum degradation ≥75%) | < 10 | < 50 | > 1000
